Laboratory results taken from paper PMC3806773, “Discovery of P1736, a Novel Antidiabetic Compound That Improves Peripheral Insulin Sensitivity in Mice Models” (PLoS ONE, 2013).
“Also recorded” adds a separate entry of the source. Marks after values point to notes of the source that are not given here.

Legend:
[1] = tested on: insulin resistant 3T3 adipocytes; assay: Glucose uptake in dexamethasone-induced insulin resistant 3T3 adipocytes; assay type: cell-based
Experimental: Fully differentiated 3T3 adipocytes generated in 24-well plates were used after day 8 of differentiation. Insulin resistance was induced essentially as described before. Briefly, adipocytes were incubated with 100 nM dexamethasone for six consecutive days. […].
Glucose uptake was measured essentially according to the method of Gao et al using ^14C-labeled 2-deoxy glucose as the tracer. Activity in this assay is defined as a statistically significant increase in glucose uptake of minimum 50% compared to the uptake seen in cells exposed to vehicle. Effect of wortmannin on glucose uptake was studied according to the method of Hausdorff et al using 100 nM wortmannin.

[2] = molecular target: T1, protein tyrosine phosphatase-1b (PTP-1B) (Homo sapiens, UniProt P18031); assay: PTP-1B activity (MDS Pharma); assay type: biochemical
T1 construct: MDS Pharma, Korea (contract laboratory)
T1 sequence (P18031 1-435): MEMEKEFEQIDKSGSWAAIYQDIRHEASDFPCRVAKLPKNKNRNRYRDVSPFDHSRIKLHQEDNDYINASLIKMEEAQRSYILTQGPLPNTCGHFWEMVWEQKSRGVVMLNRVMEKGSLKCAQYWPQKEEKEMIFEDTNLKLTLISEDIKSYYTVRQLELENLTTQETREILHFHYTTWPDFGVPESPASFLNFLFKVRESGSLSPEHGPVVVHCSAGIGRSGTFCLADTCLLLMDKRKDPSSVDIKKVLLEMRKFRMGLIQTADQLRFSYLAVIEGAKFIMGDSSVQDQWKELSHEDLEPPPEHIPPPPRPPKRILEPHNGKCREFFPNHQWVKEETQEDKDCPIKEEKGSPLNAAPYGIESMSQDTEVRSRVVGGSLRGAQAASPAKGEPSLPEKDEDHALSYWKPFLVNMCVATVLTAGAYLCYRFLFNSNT
Experimental: (§1) Transactivation activity against human PPARγ and PPARα receptors was determined using luciferase reporter gene assays in the Laboratory of CloneGen Biotechnology, Michigan, USA. Activities of protein tyrosine phosphatase-1b (PTP-1B) and adenosine mono phosphate activated kinase (AMPK) were evaluated at MDS Pharma, Korea. Evaluation of activity against human 11-Hydroxysteroid dehydrogenase-1 was outsourced to University of Edinburg, UK which used a cell based method.

[3] = tested on: adenosine mono phosphate activated kinase (AMPK); assay: AMPK activity (MDS Pharma); assay type: biochemical
Experimental: as §1

[4] = tested on: panel of membrane receptors, ion channels and enzymes; assay: Screen against a panel of membrane receptors, ion channels and enzymes
db/db mice [5] = assay: Antidiabetic activity in db/db mice, once daily oral dosing; assay type: in vivo
Experimental: After two weeks of acclimatization, db/db mice were deprived of food for 4h. Their weights were measured and blood was obtained by retro-orbital puncture for the determination of plasma glucose. The animals were randomized into groups (7-10/group) based on body weight and plasma glucose levels. Animals were dosed orally once a day, between 9.00 -10.00am for 15 consecutive days, with either P1736 (150mg/kg) or metformin (150mg/kg) or 0.5% carboxy methyl cellulose (CMC) vehicle. The dose of 150 mg/kg was chosen for once-a-day dosing of P1736, on the basis of its pharmacokinetic profile and to maintain high plasma concentrations. Body weight was measured daily. On days 10 and 15, blood samples were collected at the end of the 4h fasting after drug administration. Plasma samples were analysed for biochemical parameters, by enzymatic methods using autoanalyser 902(Hitachi instruments, Japan). Plasma adiponectin levels were measured using mouse ELISA kits (Millipore Inc. USA).

db/db mice [6] = assay: Dose response experiment in db/db mice, twice daily dosing; assay type: in vivo
Experimental: The doses were given during 8.00-9.00 am and 5.00-6.00 pm daily. On day 15, blood was collected and plasma samples were analysed as described above.

ob/ob mice = assay: Antidiabetic activity in ob/ob mice; assay type: in vivo; settings: for Liver weight: vehicle 4.3 ± 0.2; for Plasma AST: vehicle 468 ± 38; for Plasma ALT: vehicle 740 ± 71
Experimental: After one week of acclimatization, ob/ob mice (8/group) were dosed orally, twice daily for 10 consecutive days, with either P1736 (100 or 200 mg/kg) or vehicle. Rest of the procedure is exactly the same as that used for db/db mice and as described above.
(§2) On day 9, food was withheld for 4 h and blood was collected for the analysis of plasma chemistry and plasma insulin levels. On days 12 and 13, 3-4 animals from each group were sacrificed and soleus muscles were excised. Radiolabelled glucose uptake was measured in the isolated soleus muscles by the method of Zierath and colleagues. Plasma Insulin was estimated using mouse ELISA kit (Linco, USA)

[7] = tested on: soleus muscles of ob/ob mice; assay: Ex vivo muscle glucose uptake in ob/ob mice; settings: for Glucose Uptake in soleus muscle (% Increase): ex vivo after chronic administration
Experimental: as §2

Wistar rats = assay: Plasma volume in rats (Evans Blue Dye method)
human PPARα receptor = molecular target: T2, human PPARα receptor (Homo sapiens, UniProt Q07869); assay: PPARα transactivation luciferase reporter gene assay in HEK-293 cells; settings: upto 10 μM
T2 sequence (Q07869 239-466 limits assumed): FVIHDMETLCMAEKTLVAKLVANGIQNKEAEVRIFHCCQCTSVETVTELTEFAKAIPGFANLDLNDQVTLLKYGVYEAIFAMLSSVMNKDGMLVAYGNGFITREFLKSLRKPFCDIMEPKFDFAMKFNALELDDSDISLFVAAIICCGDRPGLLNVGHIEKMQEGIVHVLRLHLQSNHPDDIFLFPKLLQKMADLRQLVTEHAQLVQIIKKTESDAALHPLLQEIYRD

GLUT-4 = GLUT-4 translocation in insulin resistant 3T3 adipocytes (immunofluorescence); settings: 10 µM, 4 days, 200nM insulin stimulated
[8] = 150 mg/kg oral once daily, day 10
[9] = 150 mg/kg oral once daily, day 15

O=S(=O)(Nc1cnc(Oc2cc3ccccc3cn2)c(Cl)c1)c1ccc(Cl)cc1Cl [P1736]
stimulation of glucose uptake after pretreatment with wortmannin ([1]; 10 µM compound, 100 nM wortmannin for 30 minutes): abolished
increase in glucose uptake compared to insulin resistant vehicle ([1]; 10 µM, 4 days exposure): more than 2 fold
EC50 ([1]; Adipocyte, dose response, insulin resistant adipocytes, read-out: EC50 of increase in glucose uptake): 400 nM
activity against PTP-1B [2]: no significant activity
activity against AMPK [3]: no significant activity
activity against panel targets [4]: no significant activity
decrease in plasma triglyceride (db/db mice [5]; [8]): 30%
reduction in plasma glucose (db/db mice [5]; [8]): 35%
decrease in plasma triglyceride (db/db mice [5]; [9]): 38%
reduction in plasma glucose (db/db mice [5]; [9]): 35%
plasma adiponectin levels (db/db mice [5]; 150 mg/kg oral once daily, vehicle 7.5 ± 0.44): 12.4 ± 0.33 µg/mL
effect on body weight (db/db mice [5]; 150 mg/kg, 15 days): did not affect body weight
Liver weight (db/db mice [5]; 150mg/kg, vehicle 1.8 + 0.10): 2.1+ 0.10 gm
Plasma ALT (db/db mice [5]; 150mg/kg, vehicle 91.2 + 12.7): 99.0 + 8.5 U/L
Plasma AST (db/db mice [5]; 150mg/kg, vehicle 100.6 + 8.8): 84.6 + 2.6 U/L
reduction of high initial plasma glucose (db/db mice [5]; db/db mice with high initial plasma glucose, 150 mg/kg once daily, 10 days): 23%
effect on plasma glucose and triglyceride levels over the dose range (db/db mice [6]; 5 mg/kg to 200 mg/kg twice daily, EC50 could not be established): all the doses reduced plasma glucose and triglyceride levels
weight gain (db/db mice [6]; 5 mg/kg twice daily, 15 days): did not exhibit any tendency towards weight gain
decrease in plasma glucose (db/db mice [6]; 5 mg/kg twice daily, day 15): 40%
decrease in plasma triglyceride (db/db mice [6]; 5 mg/kg twice daily, day 15): 32%
reduction in plasma glucose (ob/ob mice; 100 mg/kg twice daily, 10 days): 30%
lowering of plasma insulin levels (ob/ob mice; 100 mg/kg, 10 days): 50%
Liver weight (ob/ob mice; 100mg/kg): 4.6 ± 0.2 gm
Plasma AST (ob/ob mice; 100mg/kg): 547 ± 50 U/L
Plasma ALT (ob/ob mice; 100mg/kg): 857 ± 72 U/L
reduction in plasma glucose (ob/ob mice; 200 mg/kg twice daily, 10 days): 32%
Liver weight (ob/ob mice; 200mg/kg): 4.4 ± 0.3 gm
Plasma AST (ob/ob mice; 200mg/kg): 470 ± 57 U/L
Plasma ALT (ob/ob mice; 200mg/kg): 668 ± 92 U/L
decrease in glucose (ob/ob mice; ob/ob mice, dose not stated (abstract)): 30-35%
changes in body weight (ob/ob mice; upto 200 mg/kg twice daily): did not induce adverse changes
Plasma Glucose (% Reduction) ([7]; 1.0 mg/kg): 34%
Glucose Uptake in soleus muscle (% Increase) ([7]; 1.0 mg/kg): 70%
Glucose Uptake in soleus muscle (% Increase) ([7]; 1.0 mg/kg, listed as P1736-05): 70* %
Plasma Glucose (% Reduction) ([7]; 5.0 mg/kg): 35%
Glucose Uptake in soleus muscle (% Increase) ([7]; 5.0 mg/kg): 67%
Glucose Uptake in soleus muscle (% Increase) ([7]; 5.0 mg/kg, listed as P1736-05): 67* %
normalized plasma volume (Wistar rats; female rats, 100 mg/kg once daily 28 days, control 35.56 ± 1.46): 30.91 ± 0.03 mL/kg
normalized plasma volume (Wistar rats; female rats, 300 mg/kg once daily 28 days, control 35.56 ± 1.46): 33.02 ± 0.28 mL/kg
normalized plasma volume (Wistar rats; male rats, 100 mg/kg once daily 28 days, control 33.44 ± 1.52): 31.55 ± 0.27 mL/kg
normalized plasma volume (Wistar rats; male rats, 300 mg/kg once daily 28 days, control 33.44 ± 1.52): 29.15 ± 0.02 mL/kg
effect on plasma volume or body weights (Wistar rats; oral, 28 days, male and female normal Wistar rats): did not cause significant increase
PPARα transactivation (human PPARα receptor): did not activate
GLUT-4 translocation to plasma membrane (GLUT-4): induced translocation; also recorded: complete translocation
